Assay results from PubChem BioAssay (NCI).
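Tested at 5 concentrations; 48 h exposure; 96-well plates; endpoints linearly interpolated, else capped at highest concentration. GI50 is the concentration that inhibits growth by half. TGI: concentration producing complete growth inhibition.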

How the values were obtained:
Experiment in all cases: NCI-60 cell line screen, 48 h
HT29 colon = system: HT29 colon
NCI-H460 lung = system: NCI-H460 lung
SNB-75 CNS = system: SNB-75 CNS
COLO 205 colon = system: COLO 205 colon
RXF 393 renal = system: RXF 393 renal
MALME-3M melanoma = system: MALME-3M melanoma
U251 CNS = system: U251 CNS
786-0 renal = system: 786-0 renal
SK-MEL-28 melanoma = system: SK-MEL-28 melanoma
IGROV1 ovarian = system: IGROV1 ovarian

| Compound | TGI (HT29 colon) | TGI (NCI-H460 lung) | TGI (SNB-75 CNS) | TGI (COLO 205 colon) | TGI (RXF 393 renal) | TGI (MALME-3M melanoma) | TGI (U251 CNS) | TGI (786-0 renal) | TGI (SK-MEL-28 melanoma) | TGI (IGROV1 ovarian) | GI50 (NCI-H460 lung) | GI50 (RXF 393 renal) | GI50 (IGROV1 ovarian) | GI50 (HT29 colon) | GI50 (U251 CNS) |
| --- | --- | --- | --- | --- | --- | --- | --- | --- | --- | --- | --- | --- | --- | --- | --- |
| O=C1C=CC(=O)[C@H]2C3C=CC(C4C3C3(Cl)C(Cl)=C(Cl)[C@]4(Cl)C3(Cl)Cl)[C@@H]12 (stereo not given in full) | 12.2 µM | 15.9 µM | 25 µM | 19.1 µM | 13.8 µM | 22.6 µM | 13.3 µM | 18.4 µM | 18.6 µM | 18.4 µM |  |  |  |  |  |
| O=C1c2c(F)c(F)c(F)c(F)c2SC2=Nc3cccc4cccc(c34)N12 | 21.4 µM | 29.3 µM | 25.5 µM | 22.8 µM | 11.1 µM | 9.24 µM | 10.7 µM | 16.9 µM | 15.9 µM | 24.1 µM |  |  |  |  |  |
| Nc1nc(N)c2nc(CNc3ccc(C(=O)NC(CCNC(=O)c4ccccc4C(=O)O)C(=O)O)cc3)cnc2n1 (stereo not given) | > 100 µM | > 100 µM | > 100 µM | > 100 µM | > 100 µM | > 100 µM | > 100 µM | > 100 µM | > 100 µM | > 100 µM | 0.0144 µM | 0.967 µM | 0.0358 µM |  |  |
| Cc1sc2nc3n(c(=O)c2c1C)N=C(c1ccccc1)CS3 | > 100 µM | > 100 µM | > 100 µM | > 100 µM | > 100 µM | > 100 µM | > 100 µM | > 100 µM | > 100 µM | > 100 µM |  |  |  |  |  |
| COc1cc2c(cc1OC)-c1[nH]c3ccc([N+](=O)[O-])cc3c1CC(=O)N2 | > 100 µM | 6.4 µM | 8.93 µM | 0.811 µM | 4.82 µM | 9.34 µM | > 100 µM | > 100 µM | > 100 µM | > 100 µM |  |  |  |  |  |
| CCOP(=O)(OCC)C(C)(CC)/N=C(\N)NC#N (stereo not given) | > 100 µM | > 100 µM | > 100 µM | > 100 µM | > 100 µM | > 100 µM | > 100 µM | > 100 µM | > 100 µM | > 100 µM |  |  |  |  |  |
| CCN(CCN(CC)C(=O)NC)C(=O)NC | > 100 µM | > 100 µM | > 100 µM | > 100 µM | > 100 µM | > 100 µM | > 100 µM | > 100 µM | > 100 µM | > 100 µM |  |  |  |  |  |
| COc1cc(/C=C/c2ccc(S(N)(=O)=O)cc2)cc(OC)c1 | 33.2 µM | 42.9 µM | 53.1 µM | 32.4 µM | 34.1 µM | 41.6 µM | > 100 µM | 50.5 µM | 56.8 µM | 45.5 µM |  |  | 23.1 µM | 16.2 µM | 17.1 µM |
| CCOC(=O)C(NC(=O)c1ccccc1)(Nc1ccc(S(=O)(=O)Nc2ccc(OC)nn2)cc1)C(F)(F)F (stereo not given) | > 100 µM | > 100 µM | > 100 µM | > 100 µM | > 100 µM | > 100 µM | > 100 µM | > 100 µM | > 100 µM | > 100 µM |  |  |  |  |  |
| CC1(C)OC2[C@@H](CO[C@@]3([C@H]4OC(C)(C)O[C@@H]4CO)OC(C)(C)O[C@@H]23)O1 (stereo not given in full) | > 100 µM | > 100 µM | > 100 µM | > 100 µM | > 100 µM | > 100 µM | > 100 µM | > 100 µM | > 100 µM | > 100 µM |  |  |  |  |  |
| N#CC(C#N)C1CN2CCC1CC2 (stereo not given) | > 100 µM | > 100 µM | > 100 µM | > 100 µM | > 100 µM | > 100 µM | > 100 µM | > 100 µM | > 100 µM | > 100 µM |  |  |  |  |  |
| CN(C)CCCN=c1c2ccccc2n(C)c2[nH]c(=O)n(C)c(=O)c12 | 39.2 µM | 11.5 µM | 21.5 µM | 11.9 µM | 30.1 µM | 11 µM | 15 µM | > 64.8 µM | 26.8 µM | > 100 µM |  |  |  |  |  |
| Cc1cc2c(cc1-c1cc3c(cc1C)C(C(C)C)=C(O)C(=O)/C3=C\Nc1ccccn1)/C(=C/Nc1ccccn1)C(=O)C(O)=C2C(C)C |  | > 100 µM | > 100 µM | > 100 µM | > 100 µM | 67.6 µM | > 100 µM | > 100 µM | > 100 µM | > 100 µM |  |  |  |  |  |
| O=C1c2ccccc2C(=O)c2c(NCC3CO3)cccc21 (stereo not given) | > 86 µM | > 100 µM | > 100 µM | > 100 µM | 20.6 µM | > 100 µM | > 100 µM | > 47.9 µM | > 63.7 µM | > 60.3 µM |  |  |  |  |  |
| COc1cc2nc3n(c(=O)c2cc1OC)CCCCC3 | > 100 µM | > 100 µM | > 100 µM | > 100 µM | > 100 µM | > 100 µM | > 100 µM | > 100 µM | > 100 µM | > 100 µM |  |  |  |  |  |
| COC(=O)C1=C(C)NC2=C(C(=O)c3ccccc32)C1c1cn[nH]c1-c1ccccc1 (stereo not given) | > 100 µM | > 100 µM | > 100 µM | 52 µM | > 100 µM | > 100 µM | > 100 µM | > 100 µM | > 100 µM | > 100 µM |  |  |  |  |  |
| O=C1C(=O)N(C23CC4CC(CC(C4)C2)C3)C(=S)N1c1ccccc1 | > 100 µM | > 100 µM | > 100 µM | > 100 µM | > 100 µM | > 100 µM | > 100 µM | > 100 µM | > 100 µM | > 100 µM |  |  |  |  |  |
| C=CC(=C)CCC(Br)C(C)(C)Cl (stereo not given) | > 100 µM | > 100 µM | > 100 µM | > 100 µM | > 100 µM | > 100 µM | > 100 µM | > 100 µM | > 100 µM | > 100 µM |  |  |  |  |  |
| Cn1c(=O)oc2cc(C(=S)N3CCCCC3)ccc21 | > 100 µM | > 100 µM | > 100 µM | > 100 µM | > 100 µM | > 100 µM | > 100 µM | > 100 µM | > 100 µM | > 100 µM |  |  |  |  |  |
